Laboratory results as given in patent US20100168054A1, “Functionalized Beta 1,6 Glucosamine Disaccharides and Process for Their Preparation” (OM PHARMA, priority 2006, published 2010).

What was measured:
TLR2 and CD14 = biological target: T1, TLR2 and CD14 (Homo sapiens, UniProt O60603); test: HEK-TLR2-CD14 IL-8 secretion; assay type: cell-based; details: 24 h
T1 construct: expressed in transfected cells; host or cells: HEK (HEK-TLR2-CD14 cell line)
Text: (§1) The HEK293 cell line was chosen for its null or low basal expression of the TLR genes. These cells enable efficient monitoring of TLR activity using ELISA analysis such as IL-8 titration or reporter-based systems that monitor TLR-induced NF-κB activation. HEK-TLR2 cells (Invivogen, Toulouse, France) are engineered HEK293 cells stably transfected with multiple genes from the TLR2 pathway that include TLR2 and genes participating in the recognition or involved in the signaling cascade. These cells secrete IL-8 after TLR2 stimulation. The experiments were performed according to manufacturers' instructions. Briefly, 2×10^4 cells/well (200 ul RPMI) are incubated at 37° C. during 3 days (5% CO2). The medium is removed, and 90 ul RPMi+5% FCS is added to the wells Then the agonists and controls are added (10 ul/well). The cells return to the incubator for 24 hours. The supernatants are collected and the IL-8 ELISA is performed according to manufacturer's instructions These preliminary results were confirmed in another cell line expressing concomitantly TLR2 and CD14. The procedure used is similar to the one described just above.

[1] = system: human peripheral blood mononuclear cells (PBMC); test: IL-6 secretion by human PBMC (ELISA); assay type: cell-based; details: for IL6: 24 h
Method: Peripheral blood from healthy donors (Centre de transfusion, Hôpital Universitaire, Geneva) was centrifuged to get the buffy coat. The buffy coat was mixed with Hanks' balanced saline solution (HBSS, Sigma, Buchs, Switzerland), layered over Ficoll Paque Plus (Amersham Pharmacia) to 1.077 g/mL and centrifuged (2800 rpm, 20° C., 25 min). Cells harvested from the interphase were washed twice in HBSS at 800 rpm for 15 min at room temperature and the pelleted cells were resuspended in HBSS. The cell counts were performed using a Neubauer cell. All cell cultures were performed in RPMI-1640 medium supplemented with penicillin (100 U/mL), streptomycin (100 μg/mL), L-glutamine (2 mmol/L) and 10% fetal calf serum (FCS), all obtained from Sigma. For in vitro stimulation, the cells were cultured at a concentration of 1×10^6 viable cells/well.
PBMC were incubated at 37° C. and under 5% CO2 atmosphere with the controls (see below) and with the products of the invention at 1, 5, and 20 μg/mL for IL-6, and at 0.2, 2, and 20 μg/mL for TNF-α secretion. Medium: RPMI alone.
The surpernatants of the cultures were harvested after 24 h and the concentration of IL-6 and TNF-α were measured by an enzyme-linked immunosorbent assay (ELISA) (Human IL-6 and TNF-α ELISA Set, BD OptEIA, San Diego, USA), according to the manufacturer instructions. The detection limits were 10 and 8 pg/mL respectively.
PBMC are incubated at 37° C. and under 5% CO2 atmosphere with the products of the invention.
The supernatants of the cultures are harvested after 24 h and the concentration of IL-6 was measured by an enzyme-linked immunosorbent assay (ELISA) (Human IL-6 ELISA Set, BD OptEIA, San Diego, USA), according to the manufacturer instructions. The detection limit was 10 pg/mL.

[2] = system: THP1-Blue cells (express naturally both TLR2 and TLR4); test: THP1-Blue NF-κB/AP-1-inducible SEAP reporter; assay type: cell-based, human; details: for Optical density read at 625 nm, mean of duplicates: 48 h
Method: A first series of experiment was performed on THP-1 cells, which express naturally both TLR2 and TLR4. THP-1 cells are human peripheral blood monocytic cells. Monocytes play a key role in innate immunity and express most TLRs at various levels. As for the primary cells, THP-1 cells activate NF-κB and other transcription factors in response to TLR ligands
To facilitate analysis of TLR response in monocytes, InvivoGen (Toulouse, France) provides THP-1 clones stably transfected with an NF-κB-inducible reporter system, called THP1-Blue™. THP-1 Blue cells were stably transfected with a reporter plasmid expressing a secreted embryonic alkaline phosphatase (SEAP) gene under the control of a promoter inducible by several transcription factors such as NF-κB and AP-1. Upon TLR stimulation, THP1-Blue™ cells activate transcription factors and subsequently the secretion of SEAP which is easily detectable when using QUANTI-Blue\u2122a medium that turns purple/blue in the presence of SEAP.
The cells were stimulated with the controls and compounds of the invention according to manufacturer's instructions. Results: Increased OD at 625 Nm after 48 Hours: The results for the controls (negative=LPS K12CD25 ultrapure, a TLR4 agonist; and PAM3CSK4=positive, a TLR2 agonist) are provided in the table below. The results (expressed as OD of arbitrary units) show the mean values (from duplicate measures) of Optical density read at 625 nm, 48 h after stimulation at 37° C. with the controls (up to 1000 ng/ml): […]

TLR2 = biological target: T2, TLR2 (Homo sapiens, UniProt O60603); test: HEK-TLR2 IL-8 secretion; assay type: cell-based; details: 24 h
T2 construct: host or cells: HEK293
Text: as §1, with “instructions” for “instructions These preliminary results were confirmed in another cell line expressing concomitantly TLR2 and CD14. The procedure used is similar to the one described just above.”

T2 sequence (O60603 21-784): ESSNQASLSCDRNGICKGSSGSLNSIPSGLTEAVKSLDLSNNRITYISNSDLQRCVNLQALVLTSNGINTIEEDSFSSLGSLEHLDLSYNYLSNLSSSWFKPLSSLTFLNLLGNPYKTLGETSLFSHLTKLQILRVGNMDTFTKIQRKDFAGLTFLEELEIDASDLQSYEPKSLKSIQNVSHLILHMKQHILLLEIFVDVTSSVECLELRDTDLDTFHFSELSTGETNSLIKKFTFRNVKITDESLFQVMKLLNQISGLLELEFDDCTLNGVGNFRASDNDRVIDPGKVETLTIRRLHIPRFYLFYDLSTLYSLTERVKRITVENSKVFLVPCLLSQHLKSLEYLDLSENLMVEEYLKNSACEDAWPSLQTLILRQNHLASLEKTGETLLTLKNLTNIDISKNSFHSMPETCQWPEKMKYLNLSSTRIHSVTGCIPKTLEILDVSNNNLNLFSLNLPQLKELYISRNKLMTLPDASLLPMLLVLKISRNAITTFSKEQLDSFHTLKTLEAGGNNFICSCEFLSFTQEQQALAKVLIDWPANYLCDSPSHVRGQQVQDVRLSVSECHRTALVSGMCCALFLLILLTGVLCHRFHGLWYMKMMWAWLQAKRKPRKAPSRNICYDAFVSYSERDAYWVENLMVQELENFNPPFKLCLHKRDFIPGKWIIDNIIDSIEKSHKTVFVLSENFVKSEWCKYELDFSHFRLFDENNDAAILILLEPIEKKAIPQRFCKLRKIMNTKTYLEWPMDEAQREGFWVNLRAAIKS
T1 sequence (O60603 21-784): as above

Compound: CCCCCCCCCCCC(=O)O[C@H](CCCCCCCCCCC)CC(=O)N[C@H]1[C@H](OC[C@H]2O[C@H](OCC(O)CO)[C@H](NC(=O)C[C@H](O)CCCCCCCCCCC)[C@@H](O)[C@@H]2O)O[C@H](CO)[C@@H](OP(=O)(O)O)[C@@H]1O (stereo partly drawn) [compound 19, 2,3-Dihydroxypropyl-2-Deoxy-6-O-[2-deoxy-4-O-(dihydroxyphosphoryl)-2-[(R)-3-dodecanoyloxytetradecanoylamino]-β-D-glucopyranosyl]-2-[(R)-3-hydroxytetradecanoylamino]-α-D-glucopyranoside]
- IL-8 secretion, mean (TLR2 and CD14; 14 ng/ml): 0.05 pg/mL
- IL-8 secretion, mean (TLR2 and CD14; 41 ng/ml): 0.03 pg/mL
- IL-8 secretion, mean (TLR2 and CD14; 124 ng/ml): 0.11 pg/mL
- IL-8 secretion, mean (TLR2 and CD14; 370 ng/ml): 0.10 pg/mL
- IL-8 secretion, mean (TLR2 and CD14; 1111 ng/ml): 0.17 pg/mL
- IL-8 secretion, mean (TLR2 and CD14; 3333 ng/ml): 0.26 pg/mL
- IL-8 secretion, mean (TLR2 and CD14; 10000 ng/ml): 0.65 pg/mL
- IL6 ([1]; 1 μg/ml): 44.5 pg/mL
- IL6 ([1]; 5 μg/ml): 95.9 pg/mL
- IL6 ([1]; 20 μg/ml): 199.1 pg/mL
- IL-6 secretion (in words) ([1]; 1, 5, 20 μg/ml): able to induce IL-6 secretion
- activation of THP-1 cells (in words) [2]: good activators of THP-1 cells
- Optical density read at 625 nm, mean of duplicates ([2]; 14 ng/ml): 0.15 OD
- Optical density read at 625 nm, mean of duplicates ([2]; 41 ng/ml): 0.13 OD
- Optical density read at 625 nm, mean of duplicates ([2]; 124 ng/ml): 0.17 OD
- Optical density read at 625 nm, mean of duplicates ([2]; 370 ng/ml): 0.24 OD
- Optical density read at 625 nm, mean of duplicates ([2]; 1111 ng/ml): 0.37 OD
- Optical density read at 625 nm, mean of duplicates ([2]; 3333 ng/ml): 0.58 OD
- Optical density read at 625 nm, mean of duplicates ([2]; 10000 ng/ml): 0.77 OD
- IL-8 secretion, mean (TLR2; 14 ng/ml): 0.06 pg/mL
- IL-8 secretion, mean (TLR2; 41 ng/ml): 0.15 pg/mL
- IL-8 secretion, mean (TLR2; 124 ng/ml): 0.16 pg/mL
- IL-8 secretion, mean (TLR2; 370 ng/ml): 0.20 pg/mL
- IL-8 secretion, mean (TLR2; 1111 ng/ml): 0.27 pg/mL
- IL-8 secretion, mean (TLR2; 3333 ng/ml): 0.37 pg/mL
- IL-8 secretion, mean (TLR2; 10000 ng/ml): 0.62 pg/mL
